Here are results for 11 compounds from ChEMBL document CHEMBL1201862, “PubChem BioAssay data set” (2004).

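Method: 48-hour compound exposure of cells in 96-well plates, five concentrations, linear interpolation of endpoints. GI50 is the concentration that inhibits growth by half.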 Active and inactive are the calls of the source. No stated cut-off is given here; in the data, active = GI50 up to about 1.1 µM and inactive = higher. Where only a bound is given, the exact number is not on record here.

One may read the GI50 as the concentration at which growth is held to half of that of the control.

Test in all cases: DTP human tumour cell line panel, 48 h
Test [1] deals with A498.
The subject of test [2] is ACHN.
The subject of test [3] is CCRF-CEM.
Test [4] deals with HCC 2998.
Test [5] relates to HCT-116.
Test [6] has as its system HOP-62.
For test [7], the system named is KM12.
The subject of test [8] is M14.
The test system of test [9] is MDA-MB-231.
The test system of test [10] is OVCAR-8.
Test [11] relates to RXF 393.
The subject of test [12] is SF-268.
The test system of test [13] is SF-295.
Test [14] has as its system SF-539.
Test [15] deals with SW-620.
Test [16] has as its system U-251.
Test [17] concerns UACC-62.
In test [18] the test system is CAKI-1.
For test [19], the system named is SK-MEL-2.
Test [20] has as its system NCI-H522.

For the compound `CCOc1ccc2ccccc2c1NC1=NCCO1`, the GI50 in test [1] is 35.1 µM (inactive); in test [2], 20.6 µM (inactive); in test [3], 39.1 µM (inactive); in test [4] it was 38.5 µM (inactive); in test [5], 36.9 µM (inactive); in test [6] it was 28.2 µM (inactive). Moreover, the GI50 in test [7] is 24.9 µM (inactive); in test [8] it was 37.2 µM (inactive); in test [9], > 100 µM (inactive); in test [10] it was 74.6 µM (inactive); in test [11], 98.6 µM (inactive); in test [12] it was > 100 µM (inactive). Besides, the GI50 in [13] was 19.1 µM (inactive); in test [14] it was 49.3 µM (inactive); in test [15], 46.1 µM (inactive); in test [16], 45.3 µM (inactive); in [17] it was 39.4 µM (inactive).
On to `CN(C)CCCNC(=O)c1cc(NC(=O)CCCn2c3ccccc3c3ccccc32)cn1C`, for which the GI50 was 17.7 µM (inactive) in test [1]; 26.9 µM (inactive) in test [2]; 21.8 µM (inactive) in test [18]; 29.6 µM (inactive) in test [3]; 25.9 µM (inactive) in test [5]; > 100 µM (inactive) in test [6]. The GI50 in test [7] was 21.4 µM (inactive); in [8] it was 28.1 µM (inactive); in [9], 21 µM (inactive); in [10], 48.3 µM (inactive); in test [11], 32.8 µM (inactive); in test [12] it was 66.7 µM (inactive). For the same compound, the GI50 in [13] is 25.9 µM (inactive); in test [14], 71.3 µM (inactive); in test [19], 34.8 µM (inactive); in test [15], > 100 µM (inactive); in test [16] it was 37.3 µM (inactive); in test [17] it was 20.8 µM (inactive).
Regarding `Cc1ccc(S(=O)(=O)N(CC(O)COc2ccccc2)c2c(F)c(F)c(F)c(F)c2F)cc1` (centres undefined), the GI50 in test [1] is 17.1 µM (inactive); in test [2] it was 15.7 µM (inactive); in test [18], 0.237 µM (active); in [3], < 0.01 µM (active); in test [4], 17.3 µM (inactive); in test [5], 17 µM (inactive). The GI50 in [6] is 16.7 µM (inactive); in [7] it was 20.7 µM (inactive); in test [8], 20 µM (inactive); in test [9] it was 12.8 µM (inactive); in test [10], 17.1 µM (inactive); in [12], 14.5 µM (inactive). In addition, the GI50 is 17.1 µM (inactive) in test [13]; 19.8 µM (inactive) in test [14]; 16.4 µM (inactive) in test [19]; 18.7 µM (inactive) in [15]; 13.2 µM (inactive) in test [16]; 13.7 µM (inactive) in [17].
On to `Cc1cn(C2CC(N)C(C(=O)O)O2)c(=O)[nH]c1=O` (centres undefined), for which the GI50 in [1], in test [2], in test [18], in test [3], in [4] and in test [5] was > 100 µM (inactive) throughout. Also, the GI50 in test [6], in [7], in [8], in test [9], in test [20] and in test [10] was > 100 µM (inactive) in each case. Also, the GI50 in test [12], in test [14], in test [19], in test [15], in [16] and in [17] was > 100 µM (inactive) each time.
`COc1ccc(OC)c2c1C=CC(Br)=CC2`: the GI50 in test [1] is 0.324 µM (active); in [2], 0.312 µM (active); in test [18], 0.269 µM (active); in test [3] it was 0.39 µM (active); in [4], 0.195 µM (active); in test [5], 0.232 µM (active). For the same compound, the GI50 in test [6] was 0.269 µM (active); in test [7], 0.309 µM (active); in test [8], 0.237 µM (active); in test [9], 0.285 µM (active); in test [20], 0.223 µM (active); in [10] it was 0.43 µM (active). Besides, the GI50 is 0.313 µM (active) in [12]; 0.16 µM (active) in [13]; 0.653 µM (active) in [14]; 0.106 µM (active) in [19]; 0.234 µM (active) in test [15]; 0.43 µM (active) in test [16]. Also, the GI50 in [17] is 0.137 µM (active).
Turning to `COC(=O)c1cc(C)n2c1CS[C@@H]2c1ccccc1`, the GI50 in test [1] is 27.4 µM (inactive); in test [2], 58.7 µM (inactive); in test [18], 38.7 µM (inactive); in [3], 41.4 µM (inactive); in test [5], 33.7 µM (inactive); in test [6], 37.8 µM (inactive). Further, the GI50 in [7] is 35.1 µM (inactive); in [8], 24.9 µM (inactive); in test [9] it was 57.4 µM (inactive); in [20], 23.2 µM (inactive); in [10], 44.4 µM (inactive); in test [11], 18.6 µM (inactive). Also, the GI50 in [12] is 50.6 µM (inactive); in test [13] it was 30.7 µM (inactive); in [19] it was 28.4 µM (inactive); in [15], 44.6 µM (inactive); in test [16], 32 µM (inactive).
For the compound `CC(C)CC(C#CCCOC(=O)c1ccccc1)OC(=O)c1ccccc1` (centres undefined), the GI50 in [1], in test [2], in test [3], in [4], in test [5] and in test [6] was > 10 µM (inactive) in each case. Further, the GI50 in [7], in test [8], in test [9], in test [10], in test [11] and in test [12] was > 10 µM (inactive) each time. For the same compound, the GI50 in [13], in test [14], in test [19], in test [15], in test [16] and in [17] was > 10 µM (inactive) each time.
Consider `CCOC(=O)CNc1nc(=O)c2c(=O)oc(Cl)cc2o1`, for which the GI50 in test [1] is 17.5 µM (inactive); in test [2], 13.5 µM (inactive); in test [18], 12.9 µM (inactive); in [3], 5.82 µM (inactive); in test [4] it was 15.6 µM (inactive); in [5] it was 12.1 µM (inactive). Moreover, the GI50 was 25.4 µM (inactive) in test [6]; 22.1 µM (inactive) in test [7]; 17.9 µM (inactive) in [8]; 21.6 µM (inactive) in test [9]; 2.7 µM (inactive) in [20]; 11.2 µM (inactive) in test [10]. Further, the GI50 in test [12] was 14.7 µM (inactive); in [13], 25 µM (inactive); in test [14], 6.79 µM (inactive); in test [19], 17.2 µM (inactive); in [15], 8.81 µM (inactive); in test [16], 24.8 µM (inactive). Besides, the GI50 in test [17] is 18.2 µM (inactive).
As to `C[C@@H]1C[C@](O)([C@@H](C)Cl)C(=O)O[C@@H]2CCN3CC=C(COC(=O)[C@]1(C)O)[C@H]23`, the GI50 in [1] is > 100 µM (inactive); in [2] it was > 10 µM (inactive); in test [18], > 100 µM (inactive); in [3], > 10 µM (inactive); in test [4], > 100 µM (inactive); in test [5], > 100 µM (inactive). Moreover, the GI50 in test [6], in test [7], in test [8], in test [9], in [20] and in [10] was > 100 µM (inactive) throughout. Further, the GI50 in test [12], in test [13], in [14], in test [19], in test [15] and in test [16] was > 100 µM (inactive) throughout. Besides, the GI50 in test [17] was > 100 µM (inactive).
Turning to `CC1C2(C)OC(=N)C(C#N)(C(C)O2)C1(C#N)C#N` (centres undefined), the GI50 is 87.7 µM (inactive) in [1]; 33.3 µM (inactive) in test [2]; 13.6 µM (inactive) in test [18]; 16 µM (inactive) in [3]; 20.4 µM (inactive) in [4]; 24.4 µM (inactive) in test [5]. Also, the GI50 was 49.8 µM (inactive) in test [7]; 18.3 µM (inactive) in test [8]; 19.9 µM (inactive) in test [9]; 31 µM (inactive) in [10]; 18.2 µM (inactive) in [11]; 30.8 µM (inactive) in test [12]. Besides, the GI50 in test [13] is 90.2 µM (inactive); in [14] it was 22.1 µM (inactive); in test [19] it was 19.9 µM (inactive); in test [15] it was 16.6 µM (inactive); in [16], 21.4 µM (inactive); in [17], 19.8 µM (inactive).
Turning to `O=C(c1ccccc1)N1CCC(Nc2cccnc2)O1` (centres undefined), the GI50 in test [1] is > 100 µM (inactive); in test [2] it was > 100 µM (inactive); in test [3], > 100 µM (inactive); in [4] it was 50.8 µM (inactive); in test [5], > 100 µM (inactive); in test [6], > 100 µM (inactive). In addition, the GI50 in [7], in test [8], in [9], in test [10], in test [11] and in test [12] was > 100 µM (inactive) each time. Further, the GI50 in test [13], in [14], in test [19], in [15], in test [16] and in [17] was > 100 µM (inactive) each time.
